What was measured:
[1] = system: Akt phosphorylation in Molt-4 (PTEN−/SHIP1+) cells; test: Akt phosphorylation in IGF-1 stimulated Molt-4 lymphocytes (western blot); format: cell-based; set-up: key: +: inhibits Akt phosphorylation at 10 μM; −: no effect on Akt phosphorylation at 10 μM; conditions: 10 μM; IGF-1 stimulation
Description: Jurkat (PTEN−/SHIP1−) or Molt-4 (PTEN−/SHIP1+) cells were starved in serum free RPMI for overnight. In a 15 mL conical tube, 2-3 million serum starved cells (1 million cells per mL) were treated with various concentrations of test compound (0.1, 1, or 10 μM final in 0.1% DMSO) for 30 min at 37° C. followed by stimulation with 100 ng/mL of IGF-1 for 1 hour at 37° C. After stimulation, cells were washed once with ice-cold DPBS and lysed with Lysis Buffer (20 mM Tris-HCl, pH 7.5, 140 mM NaCl, 1% NP-40, Complete Mini Protease Inhibitor Cocktail, 10 mM NaF, 1 mM Na3VO4, 1 mM β-glycerolphosphate) on ice for 30 min with vortexing every 10 min. Samples were then centrifuged at 13,000 rpm for 20 min, and supernatants were collected as total cell lysate samples. Protein concentration was determined using bicinchonic acid assay, and about 15 μg of total protein from each sample was loaded and separated on a 4-12% Tris-Glycine gel. After SDS-PAGE, proteins were transferred from the gel to a nitrocellulose membrane. The membrane was blocked in 5% BSA in PBS containing 0.1% Tween-20 (PBS-T) for 1 hour at room temperature before probing with primary antibodies for overnight at 4° C. The following antibodies were used: mouse anti-SHIP1 (1:500 dilution; Santa Cruz, Calif., USA), rabbit anti-phospho-Akt(Ser473) (1:1000 dilution; Cell Signaling Technologies, MA, USA), rabbit anti-Akt (1:1000; Cell Signaling Technologies, MA, USA), and rabbit anti-actin (1:2000; Cell Signaling Technologies, MA, USA). The membrane was then incubated with goat anti-rabbit or anti-mouse secondary antibodies (1:3000) for 1 hour at room temperature. Target proteins on the membrane were detected with ECL solution and exposed on a film.
Scoring in Table 3 is expressed as follows: + (inhibits Akt phosphorylation at 10 μM); − (no effect on Akt phosphorylation at 10 μM).

[2] = target: T1, His-hSHIP1 enzyme (Homo sapiens, UniProt Q92835); test: His-hSHIP1 phosphatase activity assay (IP4 substrate, Biomol Green); format: biochemical; conditions: percentage increase relative to background; concentrations ≦300 μM
T1 sequence (Q92835 1-1189): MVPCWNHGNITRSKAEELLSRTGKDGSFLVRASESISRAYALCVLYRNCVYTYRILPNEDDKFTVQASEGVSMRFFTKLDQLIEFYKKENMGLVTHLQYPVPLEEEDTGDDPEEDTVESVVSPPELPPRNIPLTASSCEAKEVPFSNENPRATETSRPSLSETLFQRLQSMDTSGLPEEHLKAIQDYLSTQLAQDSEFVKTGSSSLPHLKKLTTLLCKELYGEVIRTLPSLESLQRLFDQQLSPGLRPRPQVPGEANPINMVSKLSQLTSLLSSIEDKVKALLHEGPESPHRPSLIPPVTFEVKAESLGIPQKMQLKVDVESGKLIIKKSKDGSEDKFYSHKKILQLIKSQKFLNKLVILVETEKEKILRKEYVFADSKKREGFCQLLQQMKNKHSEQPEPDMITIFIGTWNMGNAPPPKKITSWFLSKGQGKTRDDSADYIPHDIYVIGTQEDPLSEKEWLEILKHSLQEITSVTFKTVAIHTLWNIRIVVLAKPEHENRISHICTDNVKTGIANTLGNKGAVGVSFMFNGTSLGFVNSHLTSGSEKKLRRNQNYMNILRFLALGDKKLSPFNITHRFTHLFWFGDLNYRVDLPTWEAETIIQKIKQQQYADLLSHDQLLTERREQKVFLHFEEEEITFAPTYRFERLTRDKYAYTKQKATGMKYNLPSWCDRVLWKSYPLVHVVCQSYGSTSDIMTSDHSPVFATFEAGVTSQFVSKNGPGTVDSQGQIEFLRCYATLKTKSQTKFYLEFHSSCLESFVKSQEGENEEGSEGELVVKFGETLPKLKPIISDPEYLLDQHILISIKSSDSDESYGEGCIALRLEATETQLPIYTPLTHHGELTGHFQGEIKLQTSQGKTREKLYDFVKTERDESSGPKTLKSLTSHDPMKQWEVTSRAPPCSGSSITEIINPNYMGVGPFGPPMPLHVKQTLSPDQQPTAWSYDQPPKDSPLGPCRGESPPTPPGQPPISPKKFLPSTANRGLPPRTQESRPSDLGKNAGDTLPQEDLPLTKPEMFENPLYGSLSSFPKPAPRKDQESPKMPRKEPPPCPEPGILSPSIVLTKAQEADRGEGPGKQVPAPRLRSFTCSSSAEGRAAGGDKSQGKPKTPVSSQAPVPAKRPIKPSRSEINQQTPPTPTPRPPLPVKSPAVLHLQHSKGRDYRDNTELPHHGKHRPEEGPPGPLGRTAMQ
Outline: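 His-hSHIP1 (15–20 ng) was incubated with IP4 (50 μM final) and compound (0–300 μM final, from 10% ethanol solutions) in 20 mM Tris-HCl, 10 mM MgCl2 pH 7.5, 0.02% Tween 20 for 15 min at 37 °C. Released phosphate was read with Biomol Green at 650 nm. Activation is % increase over background, scored + (<50%), ++ (≥50% but <65%), +++ (≥65%).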

Structure (SMILES) | Akt phosphorylation, Molt-4 (SHIP1+) [1] | Scoring: percent (%) activation of His-hSHIP1 enzyme [2]
Cc1cc(O)cc2c1[C@]1(C)CC[C@H]3C(C)(C)CCC[C@]3(C)[C@H]1CO2 [Compound No. 6, (1R,10R,11S,16S)-1,3,11,15,15-pentamethyl-8-oxatetracyclo[8.8.0.0^2,7.0^11,16]octadeca-2,4,6-trien-5-ol] | + | + (<50%)
CC1(C)CCC[C@]2(C)[C@H]3CS(=O)(=O)c4cc(O)cc(O)c4[C@]3(C)CC[C@@H]12 [Compound No. 28, (1R,10R,11S,16S)-3,5-dihydroxy-1,11,15,15-tetramethyl-8-thiatetracyclo[8.8.0.0^2,7.0^11,16]octadeca-2,4,6-triene-8,8-dione] | + | +++ (≧65%)
